Data set [1] is described as follows: Plasma concentration at 7 hr after intravenous dosing. In kind it is ADME.
Data set [2] in a line: Half-life period was determined. In kind it is ADME.
Data set [3] deals with T1, Glucocorticoid receptor (Homo sapiens, UniProt P04150).
T1 sequence (P04150 whole entry): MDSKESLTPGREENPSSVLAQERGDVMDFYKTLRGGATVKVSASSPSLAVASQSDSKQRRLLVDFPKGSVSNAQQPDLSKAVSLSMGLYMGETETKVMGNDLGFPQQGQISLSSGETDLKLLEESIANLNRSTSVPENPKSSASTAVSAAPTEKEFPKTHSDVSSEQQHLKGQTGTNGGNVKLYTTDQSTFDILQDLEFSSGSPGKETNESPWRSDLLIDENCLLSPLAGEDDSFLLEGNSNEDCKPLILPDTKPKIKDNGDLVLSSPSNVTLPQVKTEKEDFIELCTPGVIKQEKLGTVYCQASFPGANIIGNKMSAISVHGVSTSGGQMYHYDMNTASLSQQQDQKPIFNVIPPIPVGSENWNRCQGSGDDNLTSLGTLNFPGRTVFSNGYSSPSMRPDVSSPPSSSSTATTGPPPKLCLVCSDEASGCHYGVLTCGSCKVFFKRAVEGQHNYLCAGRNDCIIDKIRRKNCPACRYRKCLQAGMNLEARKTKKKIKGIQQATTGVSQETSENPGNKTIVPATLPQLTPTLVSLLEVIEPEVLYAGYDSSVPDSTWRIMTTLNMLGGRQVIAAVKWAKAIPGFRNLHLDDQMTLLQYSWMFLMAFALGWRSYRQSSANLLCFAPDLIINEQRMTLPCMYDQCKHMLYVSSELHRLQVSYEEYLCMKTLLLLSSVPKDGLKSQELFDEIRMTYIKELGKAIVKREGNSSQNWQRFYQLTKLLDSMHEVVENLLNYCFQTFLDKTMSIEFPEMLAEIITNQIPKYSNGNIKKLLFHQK
The data set can be described thus: Inhibition of Dexamethasone binding to Glucocorticoid receptor.

Data set [4] addresses T1, Glucocorticoid receptor. The data set can be described thus: Inhibition of Dexamethasone stimulated transcriptional activity in CHO cells expressing glucocorticoid receptor. In kind it is functional, cell-based.
Data set [5] concerns the target T2, Glucocorticoid receptor (Rattus norvegicus, UniProt P06536).
T2 sequence (P06536 whole entry): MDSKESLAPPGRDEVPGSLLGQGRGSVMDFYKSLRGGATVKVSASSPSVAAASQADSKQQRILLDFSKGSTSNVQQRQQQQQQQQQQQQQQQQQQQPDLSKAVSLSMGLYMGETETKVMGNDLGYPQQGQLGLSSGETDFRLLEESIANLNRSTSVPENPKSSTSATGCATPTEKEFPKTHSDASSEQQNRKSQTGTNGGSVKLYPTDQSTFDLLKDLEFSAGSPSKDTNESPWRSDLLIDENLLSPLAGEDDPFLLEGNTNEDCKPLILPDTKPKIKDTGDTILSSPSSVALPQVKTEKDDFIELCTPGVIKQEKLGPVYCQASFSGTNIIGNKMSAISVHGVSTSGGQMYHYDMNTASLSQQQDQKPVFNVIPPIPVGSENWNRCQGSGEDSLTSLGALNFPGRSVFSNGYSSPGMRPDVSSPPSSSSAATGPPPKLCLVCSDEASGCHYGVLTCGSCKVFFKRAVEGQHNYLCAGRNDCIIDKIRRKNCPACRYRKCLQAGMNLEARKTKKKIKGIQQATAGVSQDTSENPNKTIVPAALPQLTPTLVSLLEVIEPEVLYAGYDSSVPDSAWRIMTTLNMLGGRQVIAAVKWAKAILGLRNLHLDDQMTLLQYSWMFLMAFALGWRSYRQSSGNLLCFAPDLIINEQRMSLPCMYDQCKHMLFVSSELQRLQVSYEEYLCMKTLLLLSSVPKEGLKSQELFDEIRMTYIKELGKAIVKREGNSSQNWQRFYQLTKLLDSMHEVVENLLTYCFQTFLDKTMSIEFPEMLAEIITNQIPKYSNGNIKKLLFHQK
The data set can be described thus: Inhibition of prednisilone-induced tyrosine aminotransferase (TAT) activity in rat hepatocytes. In kind it is cell-based, Hepatocyte.

Data set [6] in a line: Plasma clearance by iv administration at a dose 5 mg/kg. Conditions: read-out: Clp (converted).

Each structure is given as a SMILES string.

Regarding `CC#C[C@]1(O)CC[C@H]2[C@@H]3CCC4=CC(=O)CCC4=C3[C@@H](c3ccc(N(C)CCCC4OC(C(=O)O)C(O)C(O)C4O)cc3)C[C@@]21C` (stereo partly specified), in data set [1], the concentration at 7 h stood at 3 ng/mL. This compound showed a half-life in data set [2] of 1.8 h. Besides, the results for the IC50 on Glucocorticoid receptor [3], against Glucocorticoid receptor [4] and against Glucocorticoid receptor [5] were 16.7 nM, 550 nM and 2800 nM, respectively. For the same compound, the clearance in data set [6] is 88.3 mL/min/kg.
